Experimental data as given in US20050197371A1, “Urea derivatives as PDGFR modulators” (Ambit Biosciences Corporation, priority 2003, published 2005).

The molecules below were run against T1, PDGFRB(DKIN) (PDGFR-β) (Homo sapiens, UniProt P09619) (assay: Phage-display competitive binding assay, PDGFRB(DKIN)). Conditions: T7 phage displaying human PDGFR-β, DKIN construct; read-out: Binding Assay: PDGFRB(DKIN).
T1 construct: PDGFRB(DKIN)
Protocol: The term “ND” represents non-determined values.
Briefly, T7 phage displaying human PDGFR-β were incubated with an affinity matrix coated with known PDGFR-β inhibitor in the presence of various concentrations of the soluble competitor molecules.

| SMILES | Kd |
| --- | --- |
| CC(C)(C)c1cc(NC(=O)Nc2ccc(C(=O)/C=C/c3ccncc3)cc2)no1 | 100 to 1000 nM |
| O=C(c1cc2ccccc2[nH]1)c1cc2cc(O)ccc2[nH]1 | < 100 nM |
| CC(C)(C)c1cnc(CSc2cnc(NC(=O)Nc3ccon3)s2)o1 | 1000 to 10000 nM |
| CC(C)(C)c1cc(NC(=O)Nc2ccc(CCc3ccc(N)cc3)cc2)no1 [Compound A3] | < 100 nM |
| CC(C)(C)c1cc(NC(=O)Nc2ccc(Cl)cc2Cl)no1 [Compound A7] | 1000 to 10000 nM |
| CC(C)c1ccc(NC(=O)Nc2cc(C(C)(C)C)no2)cc1 [Compound A11] | 100 to 1000 nM |
| CC(C)(C)c1cc(NC(=O)Nc2ccc(OC(F)F)cc2)no1 [Compound A12] | 100 to 1000 nM |
| CC(C)(C)c1cc(NC(=O)Nc2ccc(OC(F)(F)F)cc2)on1 [Compound A13] | 100 to 1000 nM |
| CC(C)(C)c1cc(NC(=O)Nc2ccc(CCc3ccccc3)cc2)no1 [Compound A15] | < 100 nM |
| CC(C)(C)c1ccc(NC(=O)Nc2cc(C(C)(C)C)no2)cc1 [Compound A16] | 100 to 1000 nM |
| CC(C)(C)c1cc(NC(=O)Nc2ccc3cc4ccccc4cc3c2)no1 [Compound A18] | 1000 to 10000 nM |
| CC(=O)c1ccc(NC(=O)Nc2cc(C(C)(C)C)on2)cc1 [Compound A20] | 100 to 1000 nM |
| CC(C)(C)c1cc(NC(=O)Nc2ccc([N+](=O)[O-])cc2)no1 [Compound A21] | 100 to 1000 nM |
| CC(C)(C)c1cc(NC(=O)Nc2ccc(Oc3ccccc3)cc2)no1 [Compound A24] | 100 to 1000 nM |
| CC(C)c1ccc(NC(=O)Nc2cc(C(C)(C)C)on2)cc1 [Compound A25] | 100 to 1000 nM |
| CC(C)(C)c1cc(NC(=O)Nc2ccc(Br)cc2C(F)(F)F)on1 [Compound A26] | 1000 to 10000 nM |

| SMILES | Kd |
| --- | --- |
| CC(C)(C)c1cc(NC(=O)Nc2ccc(Cl)cc2)no1 [Compound A27] | 100 to 1000 nM |
| COc1ccc(NC(=O)Nc2cc(C(C)(C)C)on2)cc1 [Compound A29] | 100 to 1000 nM |
| COc1ccc(NC(=O)Nc2cc(C(C)(C)C)no2)cc1 [Compound A30] | < 100 nM |
| CC(C)(C)c1cc(NC(=O)Nc2ccc(Cl)cc2)on1 [Compound A32] | < 100 nM |
| Cc1ccc(NC(=O)Nc2cc(C(C)(C)C)on2)cc1 [Compound A33] | < 100 nM |
| CC(C)(C)c1cc(NC(=O)Nc2ccc(OCCN3CCOCC3)c3ccccc23)no1 [Compound A36] | 1000 to 10000 nM |
| CSc1ccc(NC(=O)Nc2cc(C(C)(C)C)on2)cc1 [Compound A37] | 100 to 1000 nM |
| CSc1ccc(NC(=O)Nc2cc(C(C)(C)C)no2)cc1 [Compound A39] | 100 to 1000 nM |
| C[S+]([O-])c1ccc(NC(=O)Nc2cc(C(C)(C)C)on2)cc1 (centres unmarked) [Compound A46] | 100 to 1000 nM |
| COc1ccc(NC(=O)Nc2cc(C(C)(C)C)on2)cc1OC [Compound A55] | 1000 to 10000 nM |
| CC(C)(C)c1cc(NC(=O)Nc2ccc3c(c2)OCO3)no1 [Compound A56] | 1000 to 10000 nM |
| CC(C)(C)c1cc(NC(=O)Nc2ccc(N3C(=O)c4ccccc4C3=O)cc2)no1 [Compound A57] | < 100 nM |
| COc1cccc(CNC(=O)Nc2cc(C(C)(C)C)on2)c1 [Compound B3] | 100 to 1000 nM |
| CC(C)(C)c1cc(NC(=O)Nc2ccc(C(=O)O)cc2)no1 [Compound C2] | > 10000 nM |
| Cc1ccc(-n2nc(C(C)(C)C)cc2NC(=O)Nc2ccc(C(C)C)cc2)cc1 [Compound D1, 1-(3-tert-butyl-1-p-tolyl-1H-pyrazol-5-yl)-3-(4-isopropylphenyl)urea] | > 10000 nM |
| O=C(Nc1ccc(Cl)cc1)Nc1cc(C2CC2)nn1-c1ccccc1 [Compound D10] | 1000 to 10000 nM |

Second part, the molecule after the results:

| Kd | SMILES |
| --- | --- |
| 100 to 1000 nM | CC(C)(C)c1cc(N2CCCN(c3ccc(OCc4ccccc4)cc3)C2=O)on1 [Compound E2] |
| > 10000 nM | CC(C)(C)c1cc(N2CCCN(c3ccc(OCc4ccccc4)cc3)C2=O)no1 [Compound E3] |
| 100 to 1000 nM | CN1CN(c2ccc(OCc3ccccc3)cc2)C(=O)N(c2cc(C(C)(C)C)on2)C1 [Compound E4] |
| 100 to 1000 nM | COc1ccc(N2CCCN(c3cc(C(C)(C)C)no3)C2=O)cc1 [Compound E5] |
| > 10000 nM | CC(C)(C)c1cc(NC(=S)Nc2ccc(N3CCOCC3)cc2)no1 [Compound F1, 1-(5-tert-butylisoxazol-3-yl)-3-(4-morpholinophenyl)thiourea] |
| 100 to 1000 nM | CC(C)(C)c1cc(NC(=O)Nc2ccc(OCc3ccccc3C(F)(F)F)cc2)no1 [Compound G4] |
| < 100 nM | CC(C)(C)c1cc(NC(=O)Nc2ccc(OCc3ccc(OC(F)(F)F)cc3)cc2)no1 [Compound G5] |
| < 100 nM | CC(C)(C)c1cc(NC(=O)Nc2ccc(OCc3ccc(C(F)(F)F)cc3)cc2)no1 [Compound G6] |
| < 100 nM | COC(=O)c1cccc(COc2ccc(NC(=O)Nc3cc(C(C)(C)C)on3)cc2)c1 [Compound G7] |
| 100 to 1000 nM | CC(C)(C)c1cc(NC(=O)Nc2ccc(OCc3ccccc3-c3ccccc3)cc2)no1 [Compound G8] |
| 100 to 1000 nM | CC(C)(C)c1cc(NC(=O)Nc2ccc(OCc3ccc(C(=O)c4ccccc4)cc3)cc2)no1 [Compound G9] |
| < 100 nM | CC(C)(C)c1cc(NC(=O)Nc2ccc(OCc3ccccc3Cl)cc2)no1 [Compound G10] |
| < 100 nM | CC(C)(C)c1cc(NC(=O)Nc2ccc(OCc3cccc(Cl)c3)cc2)no1 [Compound G11] |
| < 100 nM | CC(C)(C)c1cc(NC(=O)Nc2ccc(OCc3ccccc3F)cc2)no1 [Compound G12, 1-(4-(2-fluorobenzyloxy)phenyl)-3-(5-tert-butylisoxazol-3-yl)urea] |
| < 100 nM | COc1cccc(COc2ccc(NC(=O)Nc3cc(C(C)(C)C)on3)cc2)c1 [Compound G13] |
| < 100 nM | CC(C)(C)c1cc(NC(=O)Nc2ccc(OCc3cccc(F)c3)cc2)no1 [Compound G14] |
| < 100 nM | Cc1ccc(COc2ccc(NC(=O)Nc3cc(C(C)(C)C)on3)cc2)cc1 [Compound G15] |
| 100 to 1000 nM | CC(Oc1ccc(NC(=O)Nc2cc(C(C)(C)C)on2)cc1)c1ccccc1 (centres unmarked) [Compound G17] |
| < 100 nM | CC(C)(C)c1cc(NC(=O)Nc2ccc(OCc3ccc(F)cc3Cl)cc2)no1 [Compound G18] |
| 100 to 1000 nM | CC(C)(C)c1cc(NC(=O)Nc2ccc(OCc3c(Cl)cccc3Cl)cc2)no1 [Compound G19] |
| < 100 nM | CCOc1ccc(NC(=O)Nc2cc(C(C)(C)C)on2)cc1 [Compound G20] |
| < 100 nM | CC(C)(C)c1cc(NC(=O)Nc2ccc(OCc3c(F)cccc3F)cc2)no1 [Compound G21] |
| < 100 nM | CC(C)(C)c1cc(NC(=O)Nc2ccc(OCCc3ccncc3)cc2)no1 [Compound G22] |
| < 100 nM | CC(C)(C)c1cc(NC(=O)Nc2ccc(OC/C=C/c3ccccc3Cl)cc2)no1 [Compound G26] |
| 100 to 1000 nM | CC(C)(C)c1cc(NC(=O)Nc2ccc(OCC(O)CO)cc2)no1 (centres unmarked) [Compound G28] |
| < 100 nM | CC(C)(C)c1cc(NC(=O)Nc2ccc(OCc3ccccc3)cc2)on1 [Compound G30] |
| < 100 nM | CC(C)(C)c1cc(NC(=O)Nc2ccc(OCc3ccccc3)cc2)no1 [Compound G31] |

| Kd | SMILES |
| --- | --- |
| < 100 nM | C=CCOc1ccc(NC(=O)Nc2cc(C(C)(C)C)no2)cc1 [Compound G32] |
| < 100 nM | CC(C)Oc1ccc(NC(=O)Nc2cc(C(C)(C)C)no2)cc1 [Compound G33] |
| < 100 nM | CC(C)(C)c1cc(NC(=O)Nc2ccc(OCc3ccc(Cl)cc3)cc2)no1 [Compound G34] |
| < 100 nM | CC(C)(C)c1cc(NC(=O)Nc2ccc(OCc3ccc(F)cc3)cc2)no1 [Compound G35] |
| < 100 nM | CC(C)(C)c1cc(NC(=O)Nc2ccc(OCC3CC3)cc2)no1 [Compound G37] |
| 100 to 1000 nM | Cc1ccc(-n2nc(C(C)(C)C)cc2NC(=O)Nc2ccc(OCCN3CCOC(CO)C3)c3ccccc23)cc1 (centres unmarked) [Compound G38] |
| < 100 nM | CC(C)(C)c1cc(NC(=O)Nc2ccc(OCC3CCC3)cc2)no1 [Compound G39] |
| 1000 to 10000 nM | CC(C)(C)c1cc(NC(=O)Nc2ccc(OCCN3CCOCC3)cc2)no1 [Compound G40] |
| 100 to 1000 nM | CC1CN(CCOc2ccc(NC(=O)Nc3cc(C(C)(C)C)on3)cc2)CC(C)O1 (centres unmarked) [Compound G42] |
| > 10000 nM | CC1CCCN(CCOc2ccc(NC(=O)Nc3cc(C(C)(C)C)on3)cc2)C1 (centres unmarked) [Compound G44] |
| 1000 to 10000 nM | CC1CN(CCOc2ccc(NC(=O)Nc3cc(C(C)(C)C)on3)cc2)CCN1 (centres unmarked) [Compound G46] |
| 1000 to 10000 nM | CC(C)(C)c1cc(NC(=O)Nc2ccc(OCCN3CCC(O)CC3)cc2)no1 [Compound G48] |
| 100 to 1000 nM | CC(C)(C)c1cc(NC(=O)Nc2ccc(OCCN3CCSCC3)cc2)no1 [Compound G53] |
| 100 to 1000 nM | CC(C)(C)c1cc(NC(=O)Nc2ccc(OCc3ccc4nonc4c3)cc2)no1 [Compound G55] |
| < 100 nM | CC(C)(C)c1cc(NC(=O)Nc2ccc(OCc3ccc(-c4ccccc4)cc3)cc2)no1 [Compound G56] |
| 100 to 1000 nM | Cn1nc(C(C)(C)C)cc1NC(=O)Nc1ccc(OCc2ccccc2)cc1 [Compound H2] |
| 1000 to 10000 nM | Cc1cc(NC(=O)Nc2ccc(OCc3ccccc3)cc2)n(-c2ccccc2)n1 [Compound H4] |
| > 10000 nM | Cn1nc(C2CC2)cc1NC(=O)Nc1ccc(OCc2ccccc2)cc1 [Compound H7] |
| 100 to 1000 nM | O=C(Nc1ccc(OCc2ccccc2)cc1)Nc1cc(C2CC2)nn1-c1ccccc1 [Compound H8] |
| 1000 to 10000 nM | Cc1ccc(-n2nc(C(C)(C)C)cc2NC(=O)Nc2cc(C(C)(C)C)on2)cc1 [Compound H11] |
| 1000 to 10000 nM | Cc1ccc(-n2nc(C(C)(C)C)cc2NC(=O)Nc2ccc(Br)cc2C(F)(F)F)cc1 [Compound H13] |
| 100 to 1000 nM | Cc1ccc(-n2nc(C(C)(C)C)cc2NC(=O)Nc2ccc(Cl)cc2)cc1 [Compound H14] |
| 100 to 1000 nM | CN(Cc1cccc([N+](=O)[O-])c1)C(=O)Nc1cc(C(C)(C)C)on1 [Compound J3] |
| > 10000 nM | COc1ccc(N(C)C(=O)N(C)c2cc(C(C)(C)C)no2)cc1 [Compound J8] |
| < 100 nM | COc1ccc(N(C)C(=O)Nc2cc(C(C)(C)C)on2)cc1 [Compound J10] |
| > 10000 nM | CCOC(=O)NN(C(=O)Nc1cc(C(C)(C)C)on1)c1ccc(OC)cc1 [Compound J13] |
| > 10000 nM | COc1ccc(N(N)C(=O)Nc2cc(C(C)(C)C)on2)cc1 [Compound J14] |
